Laboratory results taken from publication PMC10525585, “Evaluation of the Antibacterial Effect of Aurone-Derived Triazoles on Staphylococcus aureus” (Antibiotics, 2023).

Columns and labels:
MSSA [1] = experiment: Checkerboard assay with antibiotics; assay type: cell-based, Staphylococcus aureus; details: smallest ratio; <0.5 synergy, 0.5–4 no interaction, >4 antagonism
Experimental: (§1) This preparation for the checkerboard assay was analogous to the antibacterial assay described above in that the standard (5 × 10^5 CFU/mL) concentration of bacteria in media was mixed with 2-fold dilutions of antibacterial agents to verify their inhibition potential. […] Control wells contained 10 µL of bacteria with 90 µL of CAMHB, and the negative control was bacteria in 1% DMSO and CAMHB. Incubation, staining with PrestoBlue^TM, and assessing cell viability are as described for the antibacterial assay above.

MRSA [2] = experiment: Checkerboard assay with antibiotics; assay type: cell-based, Staphylococcus aureus; details: smallest ratio; <0.5 synergy, 0.5–4 no interaction, >4 antagonism
Experimental: as §1

[3] = Cytotoxicity assay (PrestoBlue); details: human, HeLa cells (ATCC CCL-2)
Experimental: Human HeLa epithelial (ATCC CCL-2) and HepG2 liver epithelial (ATCC HB-8065) cell lines were used to determine toxicity of AT compounds for mammalian cells. The cells were grown in a complete culture medium of RPMI 1640 with 10% heat-inactivated fetal bovine serum (FBS) at 37 °C in 5% CO2 (95% room air) in a humidified incubator. Before use, attached cell monolayers, which had reached at least 90% confluency, were detached by trypsinization with trypsin-EDTA (0.25%) and resuspension in fresh complete culture media. For experiments, the stock concentration of 1 × 10^5 cells/mL (to achieve a final 1 × 10^4 cells/well concentration) was achieved by counting the trypsinized cells and adjusting to their final concentration for assays.
HeLa or HepG2 cells were pre-seeded into a 96-well transparent, flat bottom plate by adding a volume of 100 µL stock cell concentration (1 × 10^5 cells/mL) in complete culture media to each well. The plate was incubated overnight at 37 °C in a 5% CO2 (95% room air) humidified incubator. After the incubation and before mixing in the AT compounds, a 100 µL volume of fresh complete culture media was added to the pre-seeded wells. The 2-fold dilutions of AT compounds in triplicates were prepared on a separate 96-well plate. Once the dilution plate was prepared, dilutions were transferred into the pre-seeded plate to achieve the same concentrations of ATs as for the inhibition assay described above. The final inoculated plate was then returned to the 5% CO2 (95% room air) humidified incubator for an additional 24 h of incubation with the diluted ATs. Controls were blank wells containing only media, wells with cells and DMSO in complete culture media, and wells with cells and complete culture media only. Measurement of toxicity was analogous to the inhibition assay except that 20 µL of PrestoBlue^TM was used and the incubation was 3–6 h before reading with the plate-reader. Cytotoxicity concentration (CC50) was defined as the concentration where half of the cells remained viable and was computed using GraphPad Prism.

MSSA [4] = experiment: Growth curve assay (Bioscreen C, 48 h); assay type: cell-based, Staphylococcus aureus; details: 48 h growth curve; for strength of growth inhibition: concentrations closer to the IC50 values (5–25 µM)
Experimental: (§2) This suspension was diluted 1:20 in TSB.
(§3) For the growth curve assay, honeycomb plates (Growth Curves USA, Piscataway, NJ, USA) were used with TSB as the growth medium. Using bacterial cultures as described above, growth curve measurements were carried out in quintuplicates. For positive growth controls, wells with 10 µL of bacteria mixed into 90 µL of TSB were used. For quintuplicate treatment wells, 4-fold dilutions of AT compounds were used such that AT concentrations of 100, 25, 6.25, and 1.56 µM were tested. A 10 µL inoculum of bacteria prepared as described above was added to each dilution of the ATs. The growth in each well was measured in 15 min intervals for 48 h at 37 °C in the Bioscreen C instrument. The results were processed and analyzed with Microsoft Excel (version 2201) and GraphPad Prism 9.3.1 software (GraphPad by Dotmatics, Boston, MA, USA).

MRSA [5] = experiment: Growth curve assay (Bioscreen C, 48 h); assay type: cell-based, Staphylococcus aureus; details: 48 h growth curve; for strength of growth inhibition: concentrations closer to the IC50 values (5–25 µM)
Experimental: as §2, §3

[6] = test system: HepG2 (ATCC HB-8065) cells; experiment: Cytotoxicity assay (PrestoBlue); assay type: cell-based, Human; details: Table 1 and text; 24 h incubation; read-out: CC50 (µM) HepG2
[7] = CC50 (µM) HeLa, Table 1 and text, 24 h incubation

Compound	FICi with Daptomycin, MSSA (MSSA [1])	FICi with Vancomycin, MSSA (MSSA [1])	FICi with Daptomycin, MRSA (MRSA [2])	FICi with Vancomycin, MRSA (MRSA [2])	CC50 at 24 h [3, 7]	CC50 at 24 h ([3]; CC50 HeLa (µM), Table S1)	blocking of bacterial growth (MSSA [4]; concentrations below 10 µM)	strength of growth inhibition (MSSA [4])	relative inhibition of MRSA growth (MRSA [5]; 0–100 µM, among the four ATs)	blocking of bacterial growth (MRSA [5]; concentrations below 10 µM)	strength of growth inhibition (MRSA [5])	CC50 [6]
O=C(c1ccccc1O)c1n[nH]nc1-c1ccc(Br)s1 [AT137]	0.38	1.5	0.19	1.13	2.84 µM	12.7 µM	successful in blocking bacterial growth	strong inhibitors	greatest inhibition	successful in blocking bacterial growth	strong inhibitors	
O=C(c1ccccc1O)c1n[nH]nc1-c1cccc(C(F)(F)F)c1 [AT116]	0.28		0.05	1.03	56.8 µM	11.7 µM		weaker inhibitors			weaker inhibitors	
O=C(c1ccccc1O)c1n[nH]nc1-c1ccc(Cl)cc1 [AT106]	0.25	0.57	0.05	0.52	> 60 µM	16.2 µM		weaker inhibitors			weaker inhibitors	70.7 µM
